Where two headings read alike, the source gives them in different places.

Data set [1] deals with T1, VBC / BRD4^BD1 ternary complex (Homo sapiens, UniProt O60885+P40337).
T1 construct: VHL (54-213), ElonginB (17-112) ElonginC (1-104); BRD4 (44-168); His6 (N, cleaved yes); made in house
Put plainly: SPR ternary complex binding, VBC surface with preformed PROTAC/BRD4 BD1 complex. The settings on record: for Kd: SPR, VHL, PROTAC, error SEM, N = 3, read-out: KLPT (ternary complex binding affinity). As to the method:
(§1) SPR experiments were performed on a Biacore 8 K or T200 instrument (Cytiva). […] The running buffer during immobilization was PBS with 0.005% P20. Either high-density (3000-4000 RU) or low-density (300-400 RU) VBC-functionalized surfaces were created, followed by equilibration in the running buffer for 3 h.
(§2) PROTACs (10 mM in 100% DMSO) were initially prepared at 200 nM in a running buffer (20 mM Tris pH 8.0, 250 mM NaCl, 1 mM TCEP, 0.01% P20, 0.2 mg/ml BSA) with a concentration of 2% DMSO. This solution was mixed at 1:1 ratio with a solution of 5 μM of the SMARCA2 or BRD4 bromodomain protein in the running buffer. […] For ternary experiments, solutions were injected sequentially in single-cycle kinetic format without regeneration (contact time 60 s, flow rate 80 μL/min, dissociation time 300 s) using a stabilization period of 60 s and syringe wash (50% DMSO) between injections onto a low-density VBC-functionalized surface.
(§3) Raw sensorgrams were processed by performing double reference subtraction, solvent correction, and analysis was done using Biacore Insight Evaluation Software. Kinetic analysis was performed by fitting data to a 1:1 Langmuir interaction model and a steady-state affinity model was used to evaluate equilibrium binding affinity.

Data set [2] deals with T2, VBC / BRD4^BD2 ternary complex (Homo sapiens, UniProt O60885+P40337).
T2 construct: VHL (54-213), ElonginB (17-112) ElonginC (1-104); ternary complex formation with both bromodomains, BRD4^BD1 and BRD4^BD2, independently; His6 (N); made in house
Put plainly: SPR ternary complex binding, VBC surface with preformed PROTAC/BRD4 BD2 complex. The following applies: for Kd: SPR, VHL, PROTAC, error SEM, N = 3, read-out: KLPT (ternary complex binding affinity). As to the method:
as §1, §2, §3

The target in data set [3] is T3, BRD4 (Homo sapiens, UniProt O60885).
T3 construct: endogenous in cells; host or cells: A375
Put plainly: BRD4 degradation time course in A375 cells (MSD). In kind it is cell-based. The following applies: single concentration at or near maximal activity. The text has this: To measure the rate of protein degradation, we treated A375 cells with a single concentration of each PROTAC and measured the decrease in target abundance over time as shown in Figs. 4b and5b.
(§4) MSD electrochemiluminescence signals were subtracted by the average background signal from wells with lysis buffer alone. Normalized MSD values (POC) for individual compound treated wells were acquired by dividing background-subtracted assay signal by signal from vehicle control wells (cells + 0.1% DMSO) and multiplying by 100. This POC data was graphed using a nonlinear regression curve fit xy analysis and a log(inhibitor) vs response —variable slope (four parameter) model for dose response curves (Graphpad Prism 9, San Diego, CA, USA). To calculate area under the curve, all points on the curve were connected and vertical lines were drawn from each point down to y = 0, generating a series of trapezoids. The area of each trapezoid was determined using the equation A = (1/2)(h)(b1 + b2), where h = 1 (distance between points), b1 = POC of the first point and b2 = POC of the second point. The sum of all trapezoids provides an approximate area under the curve (AUC). For half-life (t1/2) determination in time course studies, a one-phase decay model was used for curve fitting and the time at which the curve crossed 50 POC was determined through interpolation (Graphpad Prism 9, San Diego, CA, USA).

For data set [4], the target named is T4, BRD4^BD2 (Homo sapiens, UniProt O60885).
T4 construct: ternary complex formation with both bromodomains, BRD4^BD1 and BRD4^BD2, independently; made in house
The data set can be described thus: SPR binary binding of PROTAC to BRD4^BD2-functionalized surface. The following applies: 1:1 Langmuir binding model, SD N=2.

Data set [5] concerns the target T5, VHL/EloB/EloC (VBC) (Homo sapiens, UniProt P40337).
T5 construct: VHL (54-213), ElonginB (17-112) ElonginC (1-104); made in house
The data set can be described thus: SPR binary binding of PROTAC to VBC-functionalized surface. The procedure: as §1
PROTACs (10 mM stocks in 100% DMSO) were diluted to 400 nM in a running buffer (20 mM Tris pH 7.5, 200 mM NaCl, 0.02% P20). This stock solution was then serially diluted in the running buffer containing final 2% DMSO. […] For SMARCA2 analysis, biotinylated proteins were introduced on a Series S streptavidin (SA) sensor chip at high-density (3000-4000 RU).
as §3

For data set [6], the target named is T3, BRD4. Put plainly: BRD4 degradation, MSD assay, dose response. In kind it is cell-based. The arrangement: AUC (area under the dose-response curve): unit not given beside the values. The following applies: A375 cells; for Dmax: A-375, BRD4 degraded; for Dmax / DC50: MSD assay, 4 h timepoint; for AUC (area under the dose-response curve): BRD4 MSD assay, 4 h; for DC50: BRD4 degradation. The procedure:
A375 cells were treated with SMARCA2 or BRD4 degraders for 2 h (4 h for BRD4) and generated lysates. SMARCA2 or BRD4 protein was measured with a variation of a sandwich ELISA that was assembled from commercially available antibodies as well as reagents and instrumentation procured from Meso Scale Discovery (MSD). Degradation parameter, DC50, is not suitable for PROTACs that induce partial/incomplete DR curves at a fixed time point; maximum drop in target protein level (Dmax) >>0. Conversely, the area under the curve (AUC) can be calculated as a degradation activity parameter for any DR curve, and it encompasses both the degradation potency (i.e., DC50) and efficacy (i.e., Dmax) of PROTACs.
A 1:3 compound dose-response titration was diluted in growth media (1:20), added to appropriate wells of a cell culture plate (1:10) and then assay plates were incubated at 37 °C, 5% CO2.
Plates were washed with 300 µL per well MSD wash buffer (MSD R61TX-1) between each step. Following the last incubation, plates were washed with MSD wash buffer then 150 µL of MSD read buffer (MSD R92TC-2) was added to each well. Plates were immediately read on a MSD plate reader (MSD Sector Imager 6000).
as §4

Data set [7] concerns the target T6, BRD4-NanoLuc (Homo sapiens, UniProt O60885).
T6 construct: expressed in transfected cells; host or cells: HEK293
Put plainly: NanoBRET target engagement assay, live and permeabilized HEK293 cells (BRD4). It counts as cell-based. The settings on record: for Availability Index: RBA test cmpd / RBA of JQ1 benchmark, surrogate for permeability; for IC50: BRD4 NanoBRET TE. The procedure: We employed a NanoBRET-based target engagement (TE) assay as reported earlier^7 for evaluating PROTACs relative permeability. In summary, live and permeabilized HEK293 cells with SMARCA2 or BRD4-NanoLuc were used for measuring IC50 values of different PROTACs. The relative shift in the IC50 was evaluated as relative binding affinity (RBA) by taking the ratio of IC50 values of live and permeabilized cells. Availability index (AI), which is a surrogate for permeability can be calculated by taking a ratio of RBA of compounds to permeable benchmark molecules.
Relative Binding Affinity (RBA) = Live-cell TE IC50 / Permeabilized-cell TE IC50
Availability Index (AI) = RBAtest cmpd / RBApermeable benchmark
Availability Index (AI) greater than one is indicative of reduced permeability compared to the benchmark.

[8] abbreviates: live HEK293 cells, read-out: Live-Cell TE.
Setting [9] is: permeabilized HEK293 cells, read-out: Permeabilized-Cell TE.
The mark [10] stands for this setting: SPR, error SEM, N = 3, read-out: KLP (binary binding affinity between E3 ligase VHL and PROTAC).

In the case of `Cc1ncsc1-c1ccc(CNC(=O)[C@@H]2C[C@@H](O)CN2C(=O)[C@@H](NC(=O)COCCOCc2cn(CCNC(=O)C[C@@H]3N=C(c4ccc(Cl)cc4)c4c(sc(C)c4C)-n4c(C)nnc43)nn2)C(C)(C)C)cc1` [Compound 13, (2S,4R)-1-((S)-2-(2-(2-((1-(2-(2-((S)-4-(4-chlorophenyl)-2,3,9-trimethyl-6H-thieno[3,2-f][1,2,4]triazolo[4,3-a][1,4]diazepin-6-yl)acetamido)ethyl)-1H-1,2,3-triazol-4-yl)methoxy)ethoxy)acetamido)-3,3-dimethylbutanoyl)-4-hydroxy-N-(4-(4-methylthiazol-5-yl)benzyl)pyrrolidine-2-carboxamide], the “α (cooperativity, KLP/KLPT)” value in data set [1] stood at 0.6; in data set [2], 1.7. For the same compound, the Kd in data set [1] was found to be 29 ± 3 nM; in data set [2] it was 10 ± 2 nM; in data set [4] it was 11.7 ± 0.9 nM; in data set [5], 17 ± 2 nM. In addition, in data set [3], the “Initial Degradation Rate” value is 0.76 %/min. In data set [6], this compound gave a Dmax of 78%. In addition, in data set [6], the “AUC (area under the dose-response curve)” value was found to be 309. Besides, the DC50 in data set [6] turned out to be 726 nM. The “Availability Index” value in data set [7] turned out to be 73.87. Moreover, the IC50 in data set [7] (setting [8]) turned out to be 7270 nM; in data set [7] (setting [9]), 100 nM.

For `Cc1ncsc1-c1ccc(CNC(=O)[C@@H]2C[C@@H](O)CN2C(=O)[C@@H](NC(=O)COCCOCCOCc2cn(CCNC(=O)C[C@@H]3N=C(c4ccc(Cl)cc4)c4c(sc(C)c4C)-n4c(C)nnc43)nn2)C(C)(C)C)cc1` [Compound 14, (2S,4R)-1-((S)-12-(tert-butyl)-1-(1-(2-(2-((S)-4-(4-chlorophenyl)-2,3,9-trimethyl-6H-thieno[3,2-f][1,2,4]triazolo[4,3-a][1,4]diazepin-6-yl)acetamido)ethyl)-1H-1,2,3-triazol-4-yl)-10-oxo-2,5,8-trioxa-11-azatridecan-13-oyl)-4-hydroxy-N-(4-(4-methylthiazol-5-yl)benzyl)pyrrolidine-2-carboxamide], the “α (cooperativity, KLP/KLPT)” value in data set [1] is reported as 0.8; in data set [2], 1. Moreover, the Kd is 33 ± 4 nM in data set [1], 26.5 ± 4 nM in data set [2], 9.6 ± 0.9 nM in data set [4] and 26 ± 5 nM in data set [5] (setting [10]). Further, the “Initial Degradation Rate” value in data set [3] is listed as 0.46 %/min. In addition, the Dmax in data set [6] was determined as 69%. Also, the “AUC (area under the dose-response curve)” value in data set [6] was determined as 460. This compound also registered a DC50 in data set [6] of 2260 nM. Also, the “Availability Index” value in data set [7] is on record as 126.63. Moreover, the IC50 in data set [7] (setting [8]) worked out at 12600 nM; in data set [7] (setting [9]), 100 nM.

With `Cc1ncsc1-c1ccc(CNC(=O)[C@@H]2C[C@@H](O)CN2C(=O)[C@@H](NC(=O)COCCOCCOCCOCc2cn(CCNC(=O)C[C@@H]3N=C(c4ccc(Cl)cc4)c4c(sc(C)c4C)-n4c(C)nnc43)nn2)C(C)(C)C)cc1` [Compound 15, (2S,4R)-1-((S)-15-(tert-butyl)-1-(1-(2-(2-((S)-4-(4-chlorophenyl)-2,3,9-trimethyl-6H-thieno[3,2-f][1,2,4]triazolo[4,3-a][1,4]diazepin-6-yl)acetamido)ethyl)-1H-1,2,3-triazol-4-yl)-13-oxo-2,5,8,11-tetraoxa-14-azahexadecan-16-oyl)-4-hydroxy-N-(4-(4-methylthiazol-5-yl)benzyl)pyrrolidine-2-carboxamide], the “α (cooperativity, KLP/KLPT)” value is 1.2 in data set [1] and 0.8 in data set [2]. Also, the Kd in data set [1] was determined as 26.5 ± 4 nM; in data set [2], 39 ± 5 nM; in data set [4], 16.2 ± 2.6 nM; in data set [5] (setting [10]), 31 ± 4 nM. In addition, the “Initial Degradation Rate” value in data set [3] is listed as 0.21 %/min. In addition, the “AUC (area under the dose-response curve)” value in data set [6] stood at 733. In addition, the 50% degradation concentration (DC50) in data set [6] was more than 10000 nM. Further, the “Availability Index” value in data set [7] came out at 34.23. Besides, the values for the IC50 in data set [7] (setting [8]) and in data set [7] (setting [9]) were 3920 nM and 110 nM, respectively.

`Cc1ncsc1-c1ccc(CNC(=O)[C@@H]2C[C@@H](O)CN2C(=O)[C@@H](NC(=O)COCCOCCOCCOCCOCc2cn(CCNC(=O)C[C@@H]3N=C(c4ccc(Cl)cc4)c4c(sc(C)c4C)-n4c(C)nnc43)nn2)C(C)(C)C)cc1` [Compound 16, (2S,4R)-1-((S)-18-(tert-butyl)-1-(1-(2-(2-((S)-4-(4-chlorophenyl)-2,3,9-trimethyl-6H-thieno[3,2-f][1,2,4]triazolo[4,3-a][1,4]diazepin-6-yl)acetamido)ethyl)-1H-1,2,3-triazol-4-yl)-16-oxo-2,5,8,11,14-pentaoxa-17-azanonadecan-19-oyl)-4-hydroxy-N-(4-(4-methylthiazol-5-yl)benzyl)pyrrolidine-2-carboxamide]: the “α (cooperativity, KLP/KLPT)” value in data set [1] was found to be 1; in data set [2] it was 0.7. For the same compound, the Kd in data set [1] came out at 33 ± 5 nM; in data set [2] it was 49 ± 6 nM; in data set [4], 15.8 ± 2 nM; in data set [5] it was 33 ± 5 nM. Further, the “Initial Degradation Rate” value in data set [3] is given as 0.08 %/min. The “AUC (area under the dose-response curve)” value in data set [6] stood at 900. Further, the half-maximal degradation concentration (DC50) in data set [6] was more than 10000 nM. Also, the “Availability Index” value in data set [7] worked out at 164.81. Also, the values for the IC50 in data set [7] (setting [8]) and in data set [7] (setting [9]) were 18000 nM and 110 nM, respectively.

A word on the Dmax: it is the largest share of the target that was removed. A word on the DC50: it is the midpoint of the concentration-degradation curve.

The values above are taken from publication PMC10344917, “Affinity and cooperativity modulate ternary complex formation to drive targeted protein degradation” (Nature Communications, 2023).
